Consider two molecules from the supplement of paper PMC12076712.

Experiment [1] addresses SPR (UniProt P35270). Put plainly: pIC50, competition of probe 3 labelling in live cells. The note with it: cell material: Jurkat cells.
Experiment [2] deals with PDIK1L (UniProt Q8N165). Put plainly: pIC50, kinobeads binding competition. The note with it: cell material: Jurkat lysate.
Experiment [3] has as its target T1, MASTL (UniProt Q96GX5).
T1 sequence (whole entry): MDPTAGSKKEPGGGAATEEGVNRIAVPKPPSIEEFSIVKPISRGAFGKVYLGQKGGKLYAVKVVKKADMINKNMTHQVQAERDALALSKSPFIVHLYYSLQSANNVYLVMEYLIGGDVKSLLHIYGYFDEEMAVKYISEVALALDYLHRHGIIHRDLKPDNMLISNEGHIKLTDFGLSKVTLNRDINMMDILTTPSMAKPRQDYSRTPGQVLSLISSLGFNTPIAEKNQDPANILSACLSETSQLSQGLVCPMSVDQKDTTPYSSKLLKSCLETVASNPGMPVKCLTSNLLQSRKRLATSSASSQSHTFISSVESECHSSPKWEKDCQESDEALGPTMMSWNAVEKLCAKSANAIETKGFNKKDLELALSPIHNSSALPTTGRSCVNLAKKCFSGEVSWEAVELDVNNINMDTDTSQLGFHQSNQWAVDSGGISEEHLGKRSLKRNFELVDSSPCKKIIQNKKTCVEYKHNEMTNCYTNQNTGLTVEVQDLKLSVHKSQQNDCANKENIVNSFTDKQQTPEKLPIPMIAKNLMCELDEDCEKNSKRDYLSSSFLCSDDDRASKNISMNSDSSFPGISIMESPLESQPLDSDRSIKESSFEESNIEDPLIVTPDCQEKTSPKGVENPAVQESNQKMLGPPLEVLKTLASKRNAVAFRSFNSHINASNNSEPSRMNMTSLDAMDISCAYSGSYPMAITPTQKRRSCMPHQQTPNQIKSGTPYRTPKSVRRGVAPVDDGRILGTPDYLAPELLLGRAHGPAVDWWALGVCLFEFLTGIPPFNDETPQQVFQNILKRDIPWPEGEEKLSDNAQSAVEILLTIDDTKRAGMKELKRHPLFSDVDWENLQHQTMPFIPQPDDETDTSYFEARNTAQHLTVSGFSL
Put plainly: pIC50, kinobeads binding competition. The note with it: cell material: Jurkat lysate.

Experiment [4] addresses UniProt Q5TCX8. Put plainly: pIC50, kinobeads binding competition. The note with it: cell material: Jurkat lysate.
Experiment [5] deals with MAPKAPK3 (UniProt Q16644). Put plainly: pIC50, kinobeads binding competition. The note with it: cell material: Jurkat lysate.
Experiment [6] addresses TRRAP (UniProt Q9Y4A5). Put plainly: pIC50, kinobeads binding competition. The note with it: cell material: Jurkat lysate.
The target in experiment [7] is T2, KSR1 (UniProt Q8IVT5).
T2 sequence (whole entry): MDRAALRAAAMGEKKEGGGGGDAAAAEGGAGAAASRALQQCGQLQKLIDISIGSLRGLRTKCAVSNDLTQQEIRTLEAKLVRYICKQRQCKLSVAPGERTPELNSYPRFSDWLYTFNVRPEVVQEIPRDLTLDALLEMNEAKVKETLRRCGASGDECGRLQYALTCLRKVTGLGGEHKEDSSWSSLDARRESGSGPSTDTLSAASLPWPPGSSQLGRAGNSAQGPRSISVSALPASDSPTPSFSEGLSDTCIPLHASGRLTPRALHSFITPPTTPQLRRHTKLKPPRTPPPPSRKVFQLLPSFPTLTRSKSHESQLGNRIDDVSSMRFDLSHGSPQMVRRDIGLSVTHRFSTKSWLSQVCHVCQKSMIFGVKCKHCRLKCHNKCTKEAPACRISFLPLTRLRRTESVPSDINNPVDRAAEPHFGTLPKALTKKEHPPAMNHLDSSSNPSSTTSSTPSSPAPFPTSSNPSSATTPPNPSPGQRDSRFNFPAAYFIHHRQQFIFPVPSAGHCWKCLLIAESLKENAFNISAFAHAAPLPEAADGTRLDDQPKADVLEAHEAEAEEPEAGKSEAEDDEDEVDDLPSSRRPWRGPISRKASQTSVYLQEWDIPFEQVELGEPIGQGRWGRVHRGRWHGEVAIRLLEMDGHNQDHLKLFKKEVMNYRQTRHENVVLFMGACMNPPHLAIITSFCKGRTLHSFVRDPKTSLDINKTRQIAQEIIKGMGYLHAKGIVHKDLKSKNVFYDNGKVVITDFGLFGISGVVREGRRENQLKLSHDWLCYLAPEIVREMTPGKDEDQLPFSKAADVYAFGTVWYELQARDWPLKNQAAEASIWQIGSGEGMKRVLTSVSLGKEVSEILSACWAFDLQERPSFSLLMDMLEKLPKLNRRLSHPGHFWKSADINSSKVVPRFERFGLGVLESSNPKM
Put plainly: pIC50, kinobeads binding competition. The note with it: cell material: Jurkat lysate.

For experiment [8], the target named is MAST3 (UniProt O60307). Put plainly: pIC50, kinobeads binding competition. The note with it: cell material: Jurkat lysate.
The target of experiment [9] is T3, PIP4K2A (UniProt P48426).
T3 sequence (whole entry): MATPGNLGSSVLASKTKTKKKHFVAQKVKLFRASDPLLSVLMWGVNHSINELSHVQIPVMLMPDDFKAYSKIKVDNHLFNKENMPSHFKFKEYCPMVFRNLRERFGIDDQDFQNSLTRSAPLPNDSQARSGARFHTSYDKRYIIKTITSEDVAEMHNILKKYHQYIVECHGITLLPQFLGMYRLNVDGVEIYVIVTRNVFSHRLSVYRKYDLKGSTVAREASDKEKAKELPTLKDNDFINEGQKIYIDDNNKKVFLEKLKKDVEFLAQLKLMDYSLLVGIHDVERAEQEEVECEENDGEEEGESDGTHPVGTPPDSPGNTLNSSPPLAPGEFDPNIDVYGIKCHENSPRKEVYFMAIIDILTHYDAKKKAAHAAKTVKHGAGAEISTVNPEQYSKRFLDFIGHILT
Put plainly: pIC50, kinobeads binding competition. The note with it: cell material: Jurkat lysate.

For experiment [10], the target named is T4, PBK (UniProt Q96KB5).
T4 sequence (whole entry): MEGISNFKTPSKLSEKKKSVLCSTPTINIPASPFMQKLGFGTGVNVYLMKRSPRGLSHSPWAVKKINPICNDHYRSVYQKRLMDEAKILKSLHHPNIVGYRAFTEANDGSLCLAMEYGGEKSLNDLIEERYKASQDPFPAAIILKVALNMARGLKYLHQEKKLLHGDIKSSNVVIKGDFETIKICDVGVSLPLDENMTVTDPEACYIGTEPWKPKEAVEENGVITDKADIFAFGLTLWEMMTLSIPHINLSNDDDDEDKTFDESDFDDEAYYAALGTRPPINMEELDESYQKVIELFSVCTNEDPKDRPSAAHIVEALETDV
Put plainly: pIC50, kinobeads binding competition. The note with it: cell material: Jurkat lysate.

The target of experiment [11] is CDK10 (UniProt Q15131). Put plainly: pIC50, kinobeads binding competition. The note with it: cell material: Jurkat lysate.
Experiment [12] addresses PIK3R4 (UniProt Q99570). Put plainly: pIC50, kinobeads binding competition. The note with it: cell material: Jurkat lysate.
The target in experiment [13] is MAST4 (UniProt O15021). Put plainly: pIC50, kinobeads binding competition. The note with it: cell material: Jurkat lysate.

Molecules are shown by their SMILES. ± gives the standard deviation of the averaged measurements. A value given as a limit tells only on which side of the number the result lay.

In general, pIC50 refers to −log10 of the IC50, conventionally taken in molar units. A high value points to a low IC50.

Chain of PDIK1L (Q8N165 whole entry): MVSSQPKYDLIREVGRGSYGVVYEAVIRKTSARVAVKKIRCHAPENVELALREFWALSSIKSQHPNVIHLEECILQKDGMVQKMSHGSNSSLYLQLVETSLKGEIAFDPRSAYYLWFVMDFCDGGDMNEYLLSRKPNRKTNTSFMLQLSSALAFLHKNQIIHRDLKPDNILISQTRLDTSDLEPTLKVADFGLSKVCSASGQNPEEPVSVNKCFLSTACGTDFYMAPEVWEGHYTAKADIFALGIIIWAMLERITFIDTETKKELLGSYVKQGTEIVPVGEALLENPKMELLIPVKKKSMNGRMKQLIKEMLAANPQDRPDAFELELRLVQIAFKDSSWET
Chain of PIK3R4 (Q99570 whole entry): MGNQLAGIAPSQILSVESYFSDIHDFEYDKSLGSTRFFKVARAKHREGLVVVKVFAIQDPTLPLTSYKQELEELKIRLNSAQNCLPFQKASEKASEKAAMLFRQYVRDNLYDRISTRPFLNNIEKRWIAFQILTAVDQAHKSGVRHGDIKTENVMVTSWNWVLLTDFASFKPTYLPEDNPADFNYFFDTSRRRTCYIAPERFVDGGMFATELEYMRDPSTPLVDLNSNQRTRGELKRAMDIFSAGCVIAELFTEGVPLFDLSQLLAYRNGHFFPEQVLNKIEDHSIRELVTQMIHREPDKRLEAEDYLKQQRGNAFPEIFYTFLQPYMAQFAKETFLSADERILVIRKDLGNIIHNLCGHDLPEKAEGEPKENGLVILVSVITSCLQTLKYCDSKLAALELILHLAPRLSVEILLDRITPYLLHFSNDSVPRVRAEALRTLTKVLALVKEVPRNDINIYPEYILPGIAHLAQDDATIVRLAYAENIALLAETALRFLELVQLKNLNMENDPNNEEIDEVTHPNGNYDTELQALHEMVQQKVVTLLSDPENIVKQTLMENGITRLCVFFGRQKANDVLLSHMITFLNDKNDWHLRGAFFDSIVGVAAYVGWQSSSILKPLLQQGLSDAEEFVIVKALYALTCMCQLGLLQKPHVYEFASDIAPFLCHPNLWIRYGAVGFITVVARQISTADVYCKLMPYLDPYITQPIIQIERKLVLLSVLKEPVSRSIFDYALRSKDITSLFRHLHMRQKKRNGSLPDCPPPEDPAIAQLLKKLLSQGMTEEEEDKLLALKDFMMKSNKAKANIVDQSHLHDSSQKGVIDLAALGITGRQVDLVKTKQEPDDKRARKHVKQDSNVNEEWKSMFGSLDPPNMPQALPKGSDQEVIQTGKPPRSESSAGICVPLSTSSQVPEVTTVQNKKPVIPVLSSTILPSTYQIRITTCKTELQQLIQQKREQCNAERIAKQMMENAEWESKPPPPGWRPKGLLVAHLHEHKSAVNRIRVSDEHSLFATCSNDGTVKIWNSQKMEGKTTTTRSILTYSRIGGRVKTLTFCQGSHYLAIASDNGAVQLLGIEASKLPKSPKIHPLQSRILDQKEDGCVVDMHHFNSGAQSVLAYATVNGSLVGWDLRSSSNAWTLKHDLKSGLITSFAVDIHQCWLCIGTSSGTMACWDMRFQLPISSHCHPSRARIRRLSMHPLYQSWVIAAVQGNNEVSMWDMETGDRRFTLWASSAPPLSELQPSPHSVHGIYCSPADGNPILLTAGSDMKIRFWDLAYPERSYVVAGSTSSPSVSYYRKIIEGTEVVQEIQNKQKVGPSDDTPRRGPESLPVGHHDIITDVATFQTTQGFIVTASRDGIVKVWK
Chain of SPR (P35270 whole entry, looked up): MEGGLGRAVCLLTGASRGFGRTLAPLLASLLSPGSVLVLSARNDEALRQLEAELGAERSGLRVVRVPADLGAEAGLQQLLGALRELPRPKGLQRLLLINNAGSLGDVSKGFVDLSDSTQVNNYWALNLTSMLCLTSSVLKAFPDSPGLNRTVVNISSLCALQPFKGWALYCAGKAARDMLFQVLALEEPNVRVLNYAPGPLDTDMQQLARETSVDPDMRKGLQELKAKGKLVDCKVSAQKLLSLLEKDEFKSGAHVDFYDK
Chain of MAPKAPK3 (Q16644 whole entry, looked up): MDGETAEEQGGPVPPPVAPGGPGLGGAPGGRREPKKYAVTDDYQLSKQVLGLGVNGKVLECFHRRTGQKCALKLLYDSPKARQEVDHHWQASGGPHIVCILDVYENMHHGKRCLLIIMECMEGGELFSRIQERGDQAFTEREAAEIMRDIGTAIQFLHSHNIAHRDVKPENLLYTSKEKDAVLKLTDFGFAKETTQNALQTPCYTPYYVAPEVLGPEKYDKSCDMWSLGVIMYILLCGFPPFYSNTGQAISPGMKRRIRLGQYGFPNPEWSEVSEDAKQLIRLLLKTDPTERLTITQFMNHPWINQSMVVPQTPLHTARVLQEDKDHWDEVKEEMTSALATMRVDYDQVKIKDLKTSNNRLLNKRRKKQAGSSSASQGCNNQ
Chain of CDK10 (Q15131 whole entry): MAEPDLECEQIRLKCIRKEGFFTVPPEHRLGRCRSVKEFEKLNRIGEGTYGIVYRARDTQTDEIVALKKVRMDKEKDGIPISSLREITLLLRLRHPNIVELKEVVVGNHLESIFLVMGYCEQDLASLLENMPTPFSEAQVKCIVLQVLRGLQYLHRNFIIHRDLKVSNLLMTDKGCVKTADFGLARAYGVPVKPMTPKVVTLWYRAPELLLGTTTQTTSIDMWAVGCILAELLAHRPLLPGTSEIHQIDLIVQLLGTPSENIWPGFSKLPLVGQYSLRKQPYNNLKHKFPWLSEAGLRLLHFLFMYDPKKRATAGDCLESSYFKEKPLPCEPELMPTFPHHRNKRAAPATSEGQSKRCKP
Chain of UniProt Q5TCX8 (Q5TCX8 whole entry): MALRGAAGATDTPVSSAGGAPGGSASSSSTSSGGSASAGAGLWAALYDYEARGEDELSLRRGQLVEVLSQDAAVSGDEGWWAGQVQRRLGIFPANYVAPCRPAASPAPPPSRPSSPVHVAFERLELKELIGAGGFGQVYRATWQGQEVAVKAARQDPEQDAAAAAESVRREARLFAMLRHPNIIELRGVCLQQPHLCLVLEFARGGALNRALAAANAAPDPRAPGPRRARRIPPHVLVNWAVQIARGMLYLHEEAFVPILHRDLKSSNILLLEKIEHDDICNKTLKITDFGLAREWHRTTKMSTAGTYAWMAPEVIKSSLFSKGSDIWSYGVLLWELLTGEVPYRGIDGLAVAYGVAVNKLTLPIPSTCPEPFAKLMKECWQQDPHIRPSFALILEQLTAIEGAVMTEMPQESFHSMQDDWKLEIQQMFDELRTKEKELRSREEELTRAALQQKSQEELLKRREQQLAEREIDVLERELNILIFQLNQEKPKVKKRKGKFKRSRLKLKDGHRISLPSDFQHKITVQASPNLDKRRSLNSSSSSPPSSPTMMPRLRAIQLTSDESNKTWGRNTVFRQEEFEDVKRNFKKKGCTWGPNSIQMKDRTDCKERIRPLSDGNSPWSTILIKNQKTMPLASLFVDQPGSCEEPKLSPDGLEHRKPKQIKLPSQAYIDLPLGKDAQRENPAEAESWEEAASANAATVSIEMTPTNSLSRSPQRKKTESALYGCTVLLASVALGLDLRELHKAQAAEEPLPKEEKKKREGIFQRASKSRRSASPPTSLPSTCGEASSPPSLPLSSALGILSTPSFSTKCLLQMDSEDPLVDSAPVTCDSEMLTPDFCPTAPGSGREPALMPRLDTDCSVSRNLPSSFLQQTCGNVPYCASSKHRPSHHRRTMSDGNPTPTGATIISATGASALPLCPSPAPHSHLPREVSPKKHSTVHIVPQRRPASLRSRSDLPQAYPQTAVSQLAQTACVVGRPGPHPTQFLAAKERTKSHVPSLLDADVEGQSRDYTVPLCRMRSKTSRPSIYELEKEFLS
Chain of MAST3 (O60307 whole entry): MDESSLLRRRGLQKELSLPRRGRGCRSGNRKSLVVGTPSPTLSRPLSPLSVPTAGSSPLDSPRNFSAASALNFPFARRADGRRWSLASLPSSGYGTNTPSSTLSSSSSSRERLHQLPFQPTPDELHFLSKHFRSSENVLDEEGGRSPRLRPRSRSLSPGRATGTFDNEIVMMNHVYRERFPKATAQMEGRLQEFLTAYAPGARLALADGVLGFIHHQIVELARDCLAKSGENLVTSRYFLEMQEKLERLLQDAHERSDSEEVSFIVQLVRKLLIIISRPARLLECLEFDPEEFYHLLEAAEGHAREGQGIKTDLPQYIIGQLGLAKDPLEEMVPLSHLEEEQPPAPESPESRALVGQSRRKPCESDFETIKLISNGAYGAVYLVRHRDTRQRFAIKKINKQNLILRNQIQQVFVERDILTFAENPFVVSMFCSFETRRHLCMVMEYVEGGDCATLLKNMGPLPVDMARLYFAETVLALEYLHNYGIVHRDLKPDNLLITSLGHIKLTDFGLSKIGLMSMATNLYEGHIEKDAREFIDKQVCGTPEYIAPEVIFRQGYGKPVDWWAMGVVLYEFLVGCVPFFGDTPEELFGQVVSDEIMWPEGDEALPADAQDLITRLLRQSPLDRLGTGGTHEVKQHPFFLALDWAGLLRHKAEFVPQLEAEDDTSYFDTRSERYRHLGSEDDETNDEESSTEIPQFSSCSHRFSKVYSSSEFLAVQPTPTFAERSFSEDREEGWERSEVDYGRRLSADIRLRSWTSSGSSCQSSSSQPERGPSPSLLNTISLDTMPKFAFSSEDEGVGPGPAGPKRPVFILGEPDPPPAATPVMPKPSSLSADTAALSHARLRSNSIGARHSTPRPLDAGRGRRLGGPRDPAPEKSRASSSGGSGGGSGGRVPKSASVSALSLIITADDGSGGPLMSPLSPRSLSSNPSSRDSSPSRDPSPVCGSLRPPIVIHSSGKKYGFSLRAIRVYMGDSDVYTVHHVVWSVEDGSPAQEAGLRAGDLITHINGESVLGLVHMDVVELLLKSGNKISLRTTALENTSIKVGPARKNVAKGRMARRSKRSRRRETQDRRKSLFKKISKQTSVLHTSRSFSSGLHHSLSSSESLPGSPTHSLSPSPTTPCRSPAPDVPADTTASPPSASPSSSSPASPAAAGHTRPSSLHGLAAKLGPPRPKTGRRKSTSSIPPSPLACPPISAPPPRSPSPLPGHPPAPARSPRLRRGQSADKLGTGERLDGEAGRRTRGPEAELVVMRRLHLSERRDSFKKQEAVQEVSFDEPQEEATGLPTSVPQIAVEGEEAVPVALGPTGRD

With `Cc1c(C(=O)N2CCN(CC(F)(F)F)CC2)cnn1-c1nn2cccc2c(=O)[nH]1` [QM385], in experiment [1], the pIC50 amounted to 7.61 ± 0.34.

Take `Cc1nc(Nc2ncc(C(=O)Nc3c(C)cccc3Cl)s2)cc(N2CCN(CCO)CC2)n1` [dasatinib]: the pIC50 is 4.89 ± 0.099 in experiment [2]; less than 4.52 in experiment [3]; less than 4.52 in experiment [4]; 6.74 in [5]; less than 4.52 in experiment [6]; 4.72 in experiment [7]. The pIC50 in [8], in [9], in experiment [10], in experiment [11], in [12] and in experiment [13] was less than 4.52 throughout.
